In ChEMBL document CHEMBL5335851, “Total Synthesis, Structure Reassignment, and Biological Evaluation of the Anti-Inflammatory Macrolactone 13-Hydroxy-14-deoxyoxacyclododecindione” (J Nat Prod, 2024) one finds IC50 data, which are given here for nine compounds.

pIC50: −log10 of the molar value.

The target in one assay is Mothers against decapentaplegic homolog 2/homolog 3 (Homo sapiens, UniProt P84022+Q15796). Description: Inhibition of TGF-beta induced Smad2/3 signaling in human HepG2 cells harboring pRL-EF1alpha, (CAGA)9x-MLP-Luc plasmid assessed as luciferase activity incubated for 24 hrs. It counts as cell-based.
Consider `C/C1=C\C[C@@H](O)[C@H](C)[C@H](C)OC(=O)Cc2c(Cl)c(O)cc(O)c2C1=O`, for which the IC50 (as a rule, the concentration at which inhibition is half-maximal) amounted to 0.24 µM.
Same read-out and setting: the result for `C/C1=C/C[C@@H](O)[C@H](C)[C@@H](C)OC(=O)Cc2c(Cl)c(O)cc(O)c2C1=O` reads 0.1 µM.
For `C/C1=C\C[C@H](O)[C@H](C)[C@@H](C)OC(=O)Cc2c(Cl)c(O)cc(O)c2C1=O`, the IC50 came to 0.068 µM.
As to `C/C1=C\C[C@H](O)[C@H](C)[C@H](C)OC(=O)Cc2c(Cl)c(O)cc(O)c2C1=O`, the half-maximal inhibitory concentration (IC50) stood at 0.14 µM.
Take `C/C1=C/C[C@H](O)[C@H](C)[C@@H](C)OC(=O)Cc2c(Cl)c(O)cc(O)c2C1=O`: the half-maximal inhibitory concentration (IC50) stood at 0.068 µM.

A further assay has as its target T1, Signal transducer and activator of transcription 6 (Homo sapiens, UniProt P42226).
T1 sequence (P42226 whole entry): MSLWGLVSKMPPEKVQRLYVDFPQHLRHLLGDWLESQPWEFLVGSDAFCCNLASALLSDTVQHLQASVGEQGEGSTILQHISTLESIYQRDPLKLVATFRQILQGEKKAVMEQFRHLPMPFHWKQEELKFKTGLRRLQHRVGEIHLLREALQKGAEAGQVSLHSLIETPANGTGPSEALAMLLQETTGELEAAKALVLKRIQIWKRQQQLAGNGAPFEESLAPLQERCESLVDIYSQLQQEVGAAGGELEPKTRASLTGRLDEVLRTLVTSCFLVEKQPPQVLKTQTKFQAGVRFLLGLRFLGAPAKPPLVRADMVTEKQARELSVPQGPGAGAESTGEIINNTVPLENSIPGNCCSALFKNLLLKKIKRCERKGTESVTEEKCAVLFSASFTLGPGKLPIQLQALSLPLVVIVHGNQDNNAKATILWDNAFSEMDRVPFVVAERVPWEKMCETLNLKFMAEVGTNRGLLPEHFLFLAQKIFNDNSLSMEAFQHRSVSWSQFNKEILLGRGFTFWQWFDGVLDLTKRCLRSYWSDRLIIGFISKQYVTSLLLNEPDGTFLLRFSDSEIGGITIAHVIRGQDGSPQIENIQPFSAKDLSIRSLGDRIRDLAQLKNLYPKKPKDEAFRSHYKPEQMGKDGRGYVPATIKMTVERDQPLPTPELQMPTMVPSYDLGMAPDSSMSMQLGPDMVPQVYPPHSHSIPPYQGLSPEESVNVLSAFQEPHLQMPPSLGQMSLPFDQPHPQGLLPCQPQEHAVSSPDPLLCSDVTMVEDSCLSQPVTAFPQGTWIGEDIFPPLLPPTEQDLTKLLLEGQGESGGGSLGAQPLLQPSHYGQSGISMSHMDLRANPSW
The assay is described as follows: Inhibition of IL-4 induced STAT6 signaling in human HepG2 cells harboring pRL-EF1alpha, pGL3-TK-7xN4 and TOPO-Stat6 plasmid assessed as luciferase activity incubated for 24 hrs. It counts as cell-based.
On to `C/C1=C\CCC(C)(C)C(C)OC(=O)Cc2c(Cl)c(O)cc(O)c2C1=O` (centres undefined), for which the pIC50 (in general, the negative decadic logarithm of the IC50, by convention in mol/L) was 7.10.
On the same count and under the same terms, to `C/C1=C\C[C@@H](O)[C@H](C)[C@@H](C)OC(=O)Cc2c(Cl)c(O)cc(O)c2C1=O` belongs 7.25; to `C/C1=C\CC[C@H](C)[C@@H](C)OC(=O)Cc2c(Cl)c(O)cc(O)c2C1=O`, 7.70.
Still for that read-out and setting: to `C/C1=C\CCC(C)(O)C(C)OC(=O)Cc2c(Cl)c(O)cc(O)c2C1=O` (centres undefined) belongs 7.17.
